This note sets out measurements from patent US20210395745A1, “RNAI AGENTS FOR HEPATITIS B VIRUS INFECTION” (Arrowhead Pharmaceuticals, Inc., priority 2019, published 2021).

Data set [1] has as its system Hepatitis B Virus (HBV). The data set is described as follows: Serum HBsAg levels in X Region Knockout model mice. The conditions noted are these: Example 14, single SC, 2 mg/kg AD04872 alone or with 0.7 to 2 mg/kg AD05070, days 8-29. The class given is in vivo. The protocol:
Serum was collected and diluted 10 to 8000-fold in PBS containing 5% nonfat dry milk. Secondary HBsAg standards diluted in the nonfat milk solution were prepared from serum of ICR mice (Harlan Sprague Dawley) that had been transfected with 10 μg HBsAg-expressing plasmid pRc/CMV-HBs (Aldevron, Fargo, N. Dak.). HBsAg levels were determined with a GS HBsAg EIA 3.0 kit (Bio-Rad Laboratories, Inc., Redmond, Wash.) as described by the manufacturer. Recombinant HBsAg protein, ayw subtype, also diluted in nonfat milk in PBS, was used as a primary standard (Aldevron).
HBsAg expression for each animal was normalized to the control group of mice injected with PBS in order to account for the non-treatment related decline in expression of MC-HBV1.3. First, the HBsAg level for each animal at a time point was divided by the pre-treatment level of expression in that animal in order to determine the ratio of expression “normalized to pre-treatment”. Expression at a specific time point was then normalized to the control group by dividing the “normalized to pre-treatment” ratio for an individual animal by the average “normalized to pre-treatment” ratio of all mice in the normal PBS control group.

The test system of data set [2] is Hepatitis B Virus (HBV). Kind of data set: Serum HBV DNA levels in X Region Knockout model mice. The conditions noted are these: Example 14, single SC, 2 mg/kg AD04872 with 0.7 to 2 mg/kg AD05070, days 8-22.
Data set [3] has as its system Hepatitis B Virus (HBV). The data set is described as follows: Serum HBsAg levels (ELISA) in pHBV model mice. In kind it is in vivo, NOD-SCID mice. The settings on record: for Average HBsAg levels normalized to pre-treatment and PBS control: 4.0 mg/kg sc day 1, Day 8. The source says: Six to eight-week-old female NOD.CB17-Prkdscid/NcrCrl (NOD-SCID) mice were transiently transfected in vivo with MC-HBV1.3 by hydrodynamic tail vein injection (Yang P L et al. “Hydrodynamic injection of viral DNA: a mouse model of acute hepatitis B virus infection,” PNAS USA 2002 Vol. 99: p. 13825-13830), administered 30 to 45 days prior to administration of an HBV RNAi agent or control. MC-HBV1.3 is a plasmid-derived minicircle that contains the same terminally redundant human hepatitis B virus sequence HBV1.3 as in plasmid pHBV1.3 and in the HBV1.3.32 transgenic mice (GenBank accession #V01460) (Guidotti L G et al., “High-level hepatitis B virus replication in transgenic mice,” J Virol 1995 Vol. 69, p 6158-6169.). 5 or 10 μg MC-HBV1.3 in Ringer's Solution in a total volume of 10% of the animal's body weight was injected into mice via tail vein to create pHBV model of chronic HBV infection. The solution was injected through a 27-gauge needle in 5-7 seconds as previously described (Zhang G et al., “High levels of foreign gene expression in hepatocytes after tail vein injection of naked plasmid DNA.” Human Gene Therapy 1999 Vol. 10, p 1735-1737.). At pre-dose (either day 1 pre-dose, day −1, or day −2), Hepatitis B surface antigen (HBsAg) HBsAg expression levels in serum were measured by ELISA and the mice were grouped according to average HBsAg expression levels.
HBV expression levels were normalized to pre-administration expression levels and to control mice injected with phosphate buffered saline (“PBS”).
Mice were anesthetized with 2-3% isoflurane and blood samples were collected from the submandibular area into serum separation tubes (Sarstedt AG & Co., Nümbrecht, Germany). Blood was allowed to coagulate at ambient temperature for 20 min. The tubes were centrifuged at 8,000×g for 3 min to separate the serum and stored at 4° C.
Serum was collected and diluted 10 to 8000-fold in PBS containing 5% nonfat dry milk. […] HBsAg levels were determined with a GS HBsAg EIA 3.0 kit (Bio-Rad Laboratories, Inc., Redmond, Wash.) as described by the manufacturer. […]
For orientation: ELISA stands for enzyme-linked immunosorbent assay.

“AD05070: HBV RNAi agent duplex: antisense AM06606-AS, sense AM06605-SS (antisense UACCAAUUUAUGCCUACAGCG; sense CGCUGUAGGCAUAAAUUGGUA; chemically modified, pattern not given here)”: in the data set with Hepatitis B Virus (HBV) [1], the “knockdown of HBsAg compared to PBS control” value is “did not diminish the activity of the 2 mg/kg HBV RNAi agent AD04872”. Also, the “serum HBV DNA” value in the data set with Hepatitis B Virus (HBV) [2] is listed as “did not diminish the activity of the 2 mg/kg HBV RNAi agent AD04872”. Besides, the figures for the “Average HBsAg levels normalized to pre-treatment and PBS control” value with Hepatitis B Virus (HBV) [3] (Ex 8 Group 6A) and in the data set with Hepatitis B Virus (HBV) [3] (Ex 8 Group 6B) were 0.058 ± 0.035 and 0.117 ± 0.058, respectively. In the data set on Hepatitis B Virus (HBV) [3] (Example 15, pHBV mice, single SC injection, doses per Table 38, days 8-50), the “HBsAg compared to PBS control” value is on record as “provided significant knockdown of HBsAg compared to PBS control across each of the time points measured”.
